Test system: HepG2 cells
Assay: HepG2 cell viability under serum-free conditions (MTS)
Type: cell-based
Conditions: Homo sapiens, HepG2, 72 h, 3 days, DMEM without FBS, read-out: Average Viability (% Inhibition, n = 3)
Experimental: Cancer cells such as HepG2 cells depend on SREBP activation and de novo lipogenesis to survive, particularly in low serum or serum-free conditions. Using this model, compounds were screened over 24 hours for the ability to block cleavage of SREBP to its active form and over 72 hours for an effect on cell viability under serum-free conditions.
For viability measurements, HepG2 cells were seeded at 5,000 cells per well in 96-well plates in DMEM supplemented with 10% FBS. After 1 day in culture, cells were treated with compounds (20 μM & 5 μM) for 3 days in DMEM without FBS. Viability was measured by MTS […]. […]

Row | Compound | cytotoxicity at 20 µM [%] | cytotoxicity at 5 µM [%]
1 | CCCc1cc(-c2nc(-c3ccc(NS(=O)(=O)C(F)(F)F)cc3)cs2)ccn1 [Compound 1, 1,1,1-trifluoro-N-(4-(2-(2-propylpyridin-4-yl)thiazol-4-yl)phenyl)methanesulfonamide] | 92.1 | –
2 | CCCc1cc(-c2nc(-c3cccc(NS(=O)(=O)C(F)(F)F)c3)cs2)ccn1 [Compound 2, 1,1,1-trifluoro-N-(3-(2-(2-propylpyridin-4-yl)thiazol-4-yl)phenyl)methanesulfonamide] | 80.5 | –
3 | CCCc1cc(-c2nc(-c3ccc(NS(=O)(=O)C(F)(F)F)cc3Cl)cs2)ccn1 [Compound 4, N-(3-chloro-4-(2-(2-propylpyridin-4-yl)thiazol-4-yl)phenyl)-1,1,1-trifluoromethanesulfonamide] | 94.4 | –
4 | COc1cc(-c2csc(-c3ccnc(CC(C)C)c3)n2)ccc1NS(=O)(=O)C(F)(F)F [Compound 57, 1,1,1-trifluoro-N-(2-methoxy-4-{2-[2-(2-methylpropyl)pyridin-4-yl]-1,3-thiazol-4-yl}phenyl) methanesulfonamide] | 56.4 | –
5 | CCCc1cc(-c2nc(-c3ccc(NS(=O)(=O)C(F)(F)F)c(OC)c3)cs2)ccn1 [Compound 58, 1,1,1-trifluoro-N-{2-methoxy-4-[2-(2-propylpyridin-4-yl)-1,3-thiazol-4-yl]phenyl}methanesulfonamide] | 67.9 | –
6 | COc1cc(-c2csc(-c3ccnc(C(C)(C)C)c3)n2)ccc1NS(=O)(=O)C(F)(F)F [Compound 59, N-(4-(2-(2-tert-butylpyridin-4-yl)thiazol-4-yl)-2-methoxyphenyl)-1,1,1-trifluoromethanesulfonamide] | 99.8 | –
7 | O=S(=O)(Nc1ccc(-c2csc(-c3ccnc(Cc4ccccc4)c3)n2)c(Cl)c1)C(F)(F)F [Compound 60, N-{4-[2-(2-benzylpyridin-4-yl)-1,3-thiazol-4-yl]-3-chlorophenyl}-1,1,1-trifluoromethanesulfonamide] | 100 | –
8 | Nc1cc(-c2nc(-c3ccc(NS(=O)(=O)C(F)(F)F)cc3Cl)cs2)ccn1 [Compound 61, N-{4-[2-(2-aminopyridin-4-yl)-1,3-thiazol-4-yl]-3-chlorophenyl}-1,1,1-trifluoromethanesulfonamide] | 43 | –
9 | CS(=O)(=O)Nc1cc(-c2nc(-c3ccc(NS(=O)(=O)C(F)(F)F)cc3Cl)cs2)ccn1 [Compound 62, N-{3-chloro-4-[2-(2-methanesulfonamidopyridin-4-yl)-1,3-thiazol-4-yl]phenyl}-1,1,1-trifluoromethanesulfonamide] | 0 | –
10 | O=S(=O)(Nc1ccc(-c2csc(-c3ccnc(CCC(F)(F)F)c3)n2)c(Cl)c1)C(F)(F)F [Compound 64, N-(3-chloro-4-{2-[2-(3,3,3-trifluoropropyl)pyridin-4-yl]-1,3-thiazol-4-yl}phenyl)-1,1,1-trifluoromethanesulfonamide] | 100 | –
11 | O=S(=O)(Nc1ccc(-c2csc(-c3ccnc(NS(=O)(=O)C(F)(F)F)c3)n2)c(Cl)c1)C(F)(F)F [Compound 66, N-{3-chloro-4-[2-(2-trifluoromethanesulfonamidopyridin-4-yl)-1,3-thiazol-4-yl]phenyl}-1,1,1-trifluoromethanesulfonamide] | 11 | –
12 | O=C(c1ccc(-c2nc(-c3ccc(NS(=O)(=O)C(F)(F)F)cc3Cl)cs2)cc1)N1CCCCC1 [Compound 67, N-(3-chloro-4-{2-[4-(piperidine-1-carbonyl)phenyl]-1,3-thiazol-4-yl}phenyl)-1,1,1-trifluoromethanesulfonamide] | 20 | –
13 | O=S(=O)(Nc1ccc(-c2csc(-c3ccnc(CC4CCCCC4)c3)n2)c(Cl)c1)C(F)(F)F [Compound 70, N-(3-chloro-4-{2-[2-(cyclohexylmethyl)pyridin-4-yl]-1,3-thiazol-4-yl}phenyl)-1,1,1-trifluoromethanesulfonamide] | – | 100
14 | O=S(=O)(Nc1ccc(-c2csc(-c3cccc4ccccc34)n2)c(Cl)c1)C(F)(F)F [Compound 71, N-{3-chloro-4-[2-(naphthalen-1-yl)-1,3-thiazol-4-yl]phenyl}-1,1,1-trifluoromethanesulfonamide] | – | 97
15 | O=S(=O)(Nc1ccc(-c2csc(-c3ccc4cc[nH]c4c3)n2)c(Cl)c1)C(F)(F)F [Compound 72, N-{3-chloro-4-[2-(1H-indol-6-yl)-1,3-thiazol-4-yl]phenyl}-1,1,1-trifluoromethanesulfonamide] | – | 94
16 | O=S(=O)(Nc1ccc(-c2csc(-c3ccc(C(F)(F)F)c(OCc4ccccc4)c3)n2)c(Cl)c1)C(F)(F)F [Compound 73, N-(4-{2-[3-(benzyloxy)-4-(trifluoromethyl)phenyl]-1,3-thiazol-4-yl}-3-chlorophenyl)-1,1,1-trifluoromethanesulfonamide] | – | 99

Row | Compound | cytotoxicity at 20 µM [%] | cytotoxicity at 5 µM [%]
17 | O=S(=O)(Nc1ccc(-c2csc(-c3ccccc3-c3ccccc3)n2)c(Cl)c1)C(F)(F)F [Compound 74, N-{3-chloro-4-[2-(2-phenylphenyl)-1,3-thiazol-4-yl]phenyl}-1,1,1-trifluoromethanesulfonamide] | – | 97
18 | O=S(=O)(Nc1ccc(-c2csc(-c3cncc4ccccc34)n2)c(Cl)c1)C(F)(F)F [Compound 75, N-{3-chloro-4-[2-(isoquinolin-4-yl)-1,3-thiazol-4-yl]phenyl}-1,1,1-trifluoromethanesulfonamide] | – | 88
19 | CN1CCN(c2cc(-c3nc(-c4ccc(NS(=O)(=O)C(F)(F)F)cc4Cl)cs3)ccn2)CC1 [Compound 76, N-(3-chloro-4-{2-[2-(4-methylpiperazin-1-yl)pyridin-4-yl]-1,3-thiazol-4-yl}phenyl)-1,1,1-trifluoromethanesulfonamide] | – | 3
20 | Cc1noc(C)c1-c1nc(-c2ccc(NS(=O)(=O)C(F)(F)F)cc2Cl)cs1 [Compound 77, N-{3-chloro-4-[2-(dimethyl-1,2-oxazol-4-yl)-1,3-thiazol-4-yl]phenyl}-1,1,1-trifluoromethanesulfonamide] | – | 41
21 | Cc1ccc(S(=O)(=O)Nc2cccc(-c3nc(-c4ccc(NS(=O)(=O)C(F)(F)F)cc4Cl)cs3)c2)cc1 [Compound 78, N-{3-[4-(2-chloro-4-trifluoromethanesulfonamidophenyl)-1,3-thiazol-2-yl]phenyl}-4-methylbenzene-1-sulfonamide] | – | 87
22 | COc1ccc(-c2nc(-c3ccc(NS(=O)(=O)C(F)(F)F)cc3Cl)cs2)cc1OC [Compound 79, N-{3-chloro-4-[2-(3,4-dimethoxyphenyl)-1,3-thiazol-4-yl]phenyl}-1,1,1-trifluoromethanesulfonamide] | – | 74
23 | O=S(=O)(Nc1ccc(-c2csc(-c3cccc4[nH]ccc34)n2)c(Cl)c1)C(F)(F)F [Compound 80, N-{3-chloro-4-[2-(1H-indol-4-yl)-1,3-thiazol-4-yl]phenyl}-1,1,1-trifluoromethanesulfonamide] | – | 86
24 | O=S(=O)(Nc1ccc(-c2csc(-c3ccc(F)cc3C(F)(F)F)n2)c(Cl)c1)C(F)(F)F [Compound 81, N-[3-chloro-4-[2-[4-fluoro-2-(trifluoromethyl)phenyl]thiazol-4-yl]phenyl]-1,1,1-trifluoro-methanesulfonamide] | – | 88
25 | O=S(=O)(Nc1ccc(-c2csc(-c3ccc4c(c3)CCO4)n2)c(Cl)c1)C(F)(F)F [Compound 82, N-{3-chloro-4-[2-(2,3-dihydro-1-benzofuran-5-yl)-1,3-thiazol-4-yl]phenyl}-1,1,1-trifluoromethanesulfonamide] | – | 82
26 | O=S(=O)(Nc1ccc(-c2csc(-c3cccc(CO)c3)n2)c(Cl)c1)C(F)(F)F [Compound 83, N-(3-chloro-4-{2-[3-(hydroxymethyl)phenyl]-1,3-thiazol-4-yl}phenyl)-1,1,1-trifluoromethanesulfonamide] | – | 0
27 | O=S(=O)(Nc1ccc(-c2csc(-c3ccccc3CO)n2)c(Cl)c1)C(F)(F)F [Compound 84, N-(3-chloro-4-{2-[2-(hydroxymethyl)phenyl]-1,3-thiazol-4-yl}phenyl)-1,1,1-trifluoromethanesulfonamide] | – | 18
28 | O=S(=O)(Nc1ccc(-c2csc(-c3ccnc(N4CCCCC4)c3)n2)c(Cl)c1)C(F)(F)F [Compound 85, N-(3-chloro-4-{2-[2-(piperidin-1-yl)pyridin-4-yl]-1,3-thiazol-4-yl}phenyl)-1,1,1-trifluoromethanesulfonamide] | – | 93
29 | Cc1cnccc1-c1nc(-c2ccc(NS(=O)(=O)C(F)(F)F)cc2Cl)cs1 [Compound 86, N-{3-chloro-4-[2-(3-methylpyridin-4-yl)-1,3-thiazol-4-yl]phenyl}-1,1,1-trifluoromethanesulfonamide] | – | 27
30 | O=S(=O)(Nc1ccc(-c2csc(-c3ccnc4[nH]ccc34)n2)c(Cl)c1)C(F)(F)F [Compound 87, N-[3-chloro-4-(2-{1H-pyrrolo[2,3-b]pyridin-4-yl}-1,3-thiazol-4-yl)phenyl]-1,1,1-trifluoromethanesulfonamide] | – | 9
31 | O=S(=O)(Nc1ccc(-c2csc(-c3cccc(N4CCCCC4)c3)n2)c(Cl)c1)C(F)(F)F [Compound 88, N-(3-chloro-4-{2-[3-(piperidin-1-yl)phenyl]-1,3-thiazol-4-yl}phenyl)-1,1,1-trifluoromethanesulfonamide] | – | 19
32 | O=S(=O)(Nc1ccc(-c2csc(-c3csc4ccccc34)n2)c(Cl)c1)C(F)(F)F [Compound 90, N-{4-[2-(1-benzothiophen-3-yl)-1,3-thiazol-4-yl]-3-chlorophenyl}-1,1,1-trifluoromethanesulfonamide] | – | 99

— US10183015B2, “Heterocyclic compounds and methods of use” (Medivation Technologies LLC, priority 2015, dated 2019)
